doi:10.1101/2020.10.13.20211417v1 (medRxiv, 2020)

Tested on: patients with acute primary supratentorial ICH
Experiment: Adverse events and safety endpoints, CATCH trial
Assay type: in vivo, human
[1] = non-serious TEAE events, Total, Total severity

Ac-VSRRR-NH2 [CN-105]
Deep vein thrombosis [1]: 1 (0.4) N (%) | Dehydration [1]: 1 (0.4) N (%) | Delirium [1]: 5 (2.2) N (%) | Depressed mood [1]: 3 (1.3) N (%) | Depression [1]: 1 (0.4) N (%) | Diarrhea [1]: 2 (0.9) N (%) | Dysphagia [1]: 3 (1.3) N (%) | Dyspnea [1]: 3 (1.3) N (%) | Edema [1]: 2 (0.9) N (%) | Endotracheal intubation [1]: 1 (0.4) N (%) | Eustachian tube dysfunction [1]: 1 (0.4) N (%) | Exophthalmos [1]: 1 (0.4) N (%) | Fall [1]: 5 (2.2) N (%) | Flatulence [1]: 2 (0.9) N (%) | Gastrointestinal hemorrhage [1]: 1 (0.4) N (%) | Headache [1]: 4 (1.7) N (%) | Helicobacter infection [1]: 1 (0.4) N (%) | Hematocrit decreased [1]: 1 (0.4) N (%) | Hydrocephalus [1]: 3 (1.3) N (%) | Hyperchloremia [1]: 2 (0.9) N (%) | Hyperglycemia [1]: 5 (2.2) N (%) | Hyperlipidemia [1]: 2 (0.9) N (%) | Hypermagnesemia [1]: 2 (0.9) N (%) | Hypernatremia [1]: 1 (0.4) N (%) | Hypocalcemia [1]: 5 (2.2) N (%) | Hypoglycemia [1]: 1 (0.4) N (%) | Hypokalemia [1]: 4 (1.7) N (%) | Hypomagnesemia [1]: 7 (3) N (%) | Hyponatremia [1]: 7 (3) N (%) | Hypophosphatemia [1]: 9 (3.9) N (%) | Hypotension [1]: 2 (0.9) N (%) | Impulsive behaviour [1]: 2 (0.9) N (%) | Intracranial pressure increased [1]: 2 (0.9) N (%) | Lactic acidosis [1]: 2 (0.9) N (%) | Leukocytosis [1]: 9 (3.9) N (%) | Medical observation [1]: 1 (0.4) N (%) | Muscle spasticity [1]: 1 (0.4) N (%) | Musculoskeletal pain [1]: 1 (0.4) N (%) | Nasal congestion [1]: 3 (1.3) N (%) | Nausea [1]: 7 (3) N (%) | Neuralgia [1]: 2 (0.9) N (%) | Neurological decompensation [1]: 1 (0.4) N (%) | Pain [1]: 12 (5.2) N (%) | Partial seizures [1]: 1 (0.4) N (%) | Patella fracture [1]: 1 (0.4) N (%) | Pneumocephalus [1]: 1 (0.4) N (%) | Pneumonia [1]: 4 (1.7) N (%) | Pneumonia aspiration [1]: 1 (0.4) N (%) | Pneumothorax [1]: 2 (0.9) N (%) | Procedural pain [1]: 1 (0.4) N (%) | Pulmonary congestion [1]: 1 (0.4) N (%) | Pulmonary embolism [1]: 1 (0.4) N (%) | Pyrexia [1]: 6 (2.6) N (%) | Reflux gastritis [1]: 1 (0.4) N (%) | Respiratory failure [1]: 1 (0.4) N (%) | Scleral oedema [1]: 1 (0.4) N (%) | Scrotal irritation [1]: 1 (0.4) N (%) | Seizure [1]: 2 (0.9) N (%) | Sepsis [1]: 1 (0.4) N (%) | Sleep apnea syndrome [1]: 1 (0.4) N (%) | Somnolence [1]: 1 (0.4) N (%) | Staphylococcal infection [1]: 1 (0.4) N (%) | Subarachnoid haemorrhage [1]: 2 (0.9) N (%) | Tachycardia [1]: 2 (0.9) N (%) | Tachypnea [1]: 3 (1.3) N (%) | Thrombocytopenia [1]: 3 (1.3) N (%) | Thrombocytosis [1]: 1 (0.4) N (%) | Thrombosis [1]: 1 (0.4) N (%) | Tremor [1]: 1 (0.4) N (%) | Troponin increased [1]: 1 (0.4) N (%) | Urinary incontinence [1]: 1 (0.4) N (%) | Urinary retention [1]: 4 (1.7) N (%) | Urinary tract infection [1]: 4 (1.7) N (%) | Vomiting [1]: 2 (0.9) N (%) | Treatment emergent SAE Pneumonia (Left upper lobe pneumonia), Relatedness (subject 101-004, Moderate, day 1-8, Recovered / Resolved): Related | Treatment emergent SAE Failure to thrive, Relatedness (subject 101-004, Moderate, day 23-57, Recovered / Resolved): Unrelated | Treatment emergent SAE Cerebral haemorrhage (Left Frontal IPH), Relatedness (subject 101-004, Severe, day 58-62, Recovered / Resolved): Related | Treatment emergent SAE Urinary tract infection, Relatedness (subject 101-013, Moderate, day 39-44, Recovered / Resolved): Unrelated | Treatment emergent SAE Pulmonary embolism, Relatedness (subject 101-015, Severe, day 22-32, Recovered / Resolved): Unrelated | Treatment emergent SAE Dural arteriovenous fistula, Relatedness (subject 102-002, Moderate, day 1-1, Recovered / Resolved): Unrelated | Treatment emergent SAE Deep vein thrombosis (Left Popliteal Vein), Relatedness (subject 102-010, Severe, day 75-83, Recovered / Resolved): Unrelated | Treatment emergent SAE Respiratory distress, Relatedness (subject 103-001, Moderate, day 1-35, Recovered / Resolved): Unrelated | Treatment emergent SAE Partial seizures (Focal Seizure), Relatedness (subject 106-002, Severe, day 8-18, Recovered / Resolved): Unrelated
